Consider 2 molecules from ChEMBL document CHEMBL5365498, “Regulation of Eukaryotic Translation Initiation Factor 4E as a Potential Anticancer Strategy” (J Med Chem, 2023).

The subject of one assay is Lung cancer cell line. The assay can be described thus: Anticancer activity against Lung cancer cell line (unknown origin) assessed as cell growth inhibition. In kind it is functional, cell-based.
Assay [1] is described as follows: Anticancer activity against Breast carcinoma cell (unknown origin) assessed as cell growth inhibition. In kind it is functional, cell-based.
Assay [2] in a line: Anticancer activity against Cervical carcinoma cell line (unknown origin) assessed as cell growth inhibition. In kind it is functional, cell-based.
For the next assay, the system named is Melanoma tumor cell line. The assay can be described thus: Anticancer activity against Melanoma tumor cell line (unknown origin) assessed as cell growth inhibition. In kind it is functional, cell-based.
Assay [3] has as its target Serine/threonine-protein kinase mTOR (Homo sapiens, UniProt P42345). The assay can be described thus: Inhibition of human mTOR (1360 to 2549 residues) measured after 2 hrs in presence of ATP by LANCE Ultra kinase assay. (In TR-FRET formats the signal depends on donor and acceptor labels being close together.)
A further assay has as its system MCF7. The experiment in a line: Anticancer activity against human MCF7 cells assessed as cell growth inhibition measured after 72 hrs by CCK-8 assay. In kind it is functional, cell-based. The conditions noted are these: MCF7, 72 h. A general note: Formazan colour is commonly taken as a measure of viable cells.
The subject of a further assay is A549. The assay can be described thus: Anticancer activity against human A549 cells assessed as cell growth inhibition measured after 72 hrs by CCK-8 assay. Particulars: A549, 72 h. The assay is classed as functional, cell-based.

A word on the IC50: it is the concentration needed to halve the response being measured.

As to `Oc1cccc(-c2nc(N3CCOCC3)c3oc4ncccc4c3n2)c1` [PI-103], the IC50 (in the assay on Lung cancer cell line; in assay [1]; in assay [2]; with Melanoma tumor cell line) was 20 nM in each case.
For the molecule `CNC(=O)Nc1ccc(-c2nc(N3CCOCC3)nc3c2C=NC3C2CCOCC2)cc1` (configuration not stated), the IC50 came out at 23.2 nM in assay [3], 600 nM in the assay on MCF7 and 230 nM in the assay with A549.
